Results as given in PMC12155096 (International Journal of Molecular Sciences, 2025).
Structures can show the parent of a compound that is named as a salt.

biological target: T1, human CYP2C19 (Homo sapiens, UniProt P33261); test: not given; details: not given
T1 sequence (P33261 whole entry): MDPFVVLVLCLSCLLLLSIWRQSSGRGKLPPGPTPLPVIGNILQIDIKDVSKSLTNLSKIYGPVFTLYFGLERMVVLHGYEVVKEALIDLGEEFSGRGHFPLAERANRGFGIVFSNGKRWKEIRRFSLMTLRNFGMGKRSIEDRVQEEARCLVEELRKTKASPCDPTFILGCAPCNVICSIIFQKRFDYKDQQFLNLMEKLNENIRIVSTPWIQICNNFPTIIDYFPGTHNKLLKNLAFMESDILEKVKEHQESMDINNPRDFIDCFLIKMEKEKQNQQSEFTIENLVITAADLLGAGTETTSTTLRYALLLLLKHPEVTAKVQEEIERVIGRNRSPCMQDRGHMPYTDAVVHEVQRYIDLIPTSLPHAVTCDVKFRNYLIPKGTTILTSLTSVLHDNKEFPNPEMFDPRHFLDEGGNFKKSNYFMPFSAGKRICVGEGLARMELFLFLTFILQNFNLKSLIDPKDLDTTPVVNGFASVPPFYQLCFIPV

Structure (SMILES)	CYP2C19 AC50 (half-maximal activity concentration)
Clc1nnc(Cl)c2ccccc12 [1,4-Dichlorophthalazine]	Inactive
O=[N+]([O-])c1cccc(Cl)c1Cl [2,3-Dichloronitrobenzene]	Inactive
O=[N+]([O-])c1c(Cl)cc(Cl)cc1Cl [2,4,6-Trichloronitrobenzene]	Inactive
O=[N+]([O-])c1ccccc1CCl [2-Nitrobenzyl chloride]	Inconclusive inhibitor
O=C(O)c1ccc(Cl)c(Cl)c1 [3,4-Dichlorobenzoic acid]	Inconclusive inhibitor
O=[N+]([O-])c1cccc2cccnc12 [8-Nitroquinoline]	Inconclusive inhibitor
COC(=O)c1cccc(C(=O)OC)c1 [Dimethyl isophthalate]	Inconclusive inhibitor
COC(=O)c1ccc(C(=O)OC)cc1 [Dimethyl terephthalate]	Inactive
CCCCc1c(C)nc(NCC)[nH]c1=O [Ethirimol]	Inconclusive inhibitor
CC(=O)[C@H]1CC[C@H]2[C@@H]3CC[C@H]4C[C@](C)(O)CC[C@]4(C)[C@H]3CC[C@]12C [Ganaxolone]	Inactive
O=[N+]([O-])c1c(Cl)c(Cl)c(Cl)c(Cl)c1Cl [Pentachloronitrobenzene]	Inconclusive inhibitor
Cc1ccc2ccccc2n1 [Quinaldine]	Inactive
CCNc1nc(NCC)nc(SC)n1 [Simetryn]	Inconclusive inhibitor

biological target: T2, human CYP1A2 (Homo sapiens, UniProt P05177); test: biochemical; details: not given
T2 sequence (P05177 1-516): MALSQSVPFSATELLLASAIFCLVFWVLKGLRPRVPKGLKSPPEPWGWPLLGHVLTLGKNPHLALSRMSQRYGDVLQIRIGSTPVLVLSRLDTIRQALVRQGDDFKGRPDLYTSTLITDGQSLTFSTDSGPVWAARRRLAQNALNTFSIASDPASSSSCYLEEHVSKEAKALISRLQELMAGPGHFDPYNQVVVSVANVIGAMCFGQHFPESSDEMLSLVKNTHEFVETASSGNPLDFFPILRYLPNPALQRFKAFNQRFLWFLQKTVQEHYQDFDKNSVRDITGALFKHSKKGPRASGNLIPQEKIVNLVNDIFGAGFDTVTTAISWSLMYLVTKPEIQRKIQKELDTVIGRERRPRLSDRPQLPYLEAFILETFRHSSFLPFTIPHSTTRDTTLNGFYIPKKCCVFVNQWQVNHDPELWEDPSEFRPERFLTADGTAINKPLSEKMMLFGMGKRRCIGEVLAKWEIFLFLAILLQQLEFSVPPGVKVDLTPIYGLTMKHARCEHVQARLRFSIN

Structure (SMILES)	AC50
Clc1nnc(Cl)c2ccccc12 [1,4-Dichlorophthalazine]	9.06 µM
COc1ccc(COC(C)=O)cc1 [4-Methoxybenzyl acetate]	28.9 µM
COC(=O)c1cccc(C(=O)OC)c1 [Dimethyl isophthalate]	9.71 µM
CCCCCCCCOS(=O)(=O)O [Sodium octyl sulfate]	68.4 µM

same assay, conditions: CYP1A2 AC50 (half-maximal activity concentration)

Structure (SMILES)	AC50
O=C(Cc1ccccc1)c1ccccc1 [1,2-Diphenylethanone]	12.6 µM
O=[N+]([O-])c1cccc(Cl)c1Cl [2,3-Dichloronitrobenzene]	34.6 µM
O=[N+]([O-])c1c(Cl)cc(Cl)cc1Cl [2,4,6-Trichloronitrobenzene]	34.7 µM
O=[N+]([O-])c1ccccc1CCl [2-Nitrobenzyl chloride]	56.1 µM
O=C(O)c1ccc(Cl)c(Cl)c1 [3,4-Dichlorobenzoic acid]	59.2 µM
O=[N+]([O-])c1cccc2cccnc12 [8-Nitroquinoline]	33.9 µM
COC(=O)c1ccc(C(=O)OC)cc1 [Dimethyl terephthalate]	9.66 µM
CCCCc1c(C)nc(NCC)[nH]c1=O [Ethirimol]	31.1 µM
CC(=O)[C@H]1CC[C@H]2[C@@H]3CC[C@H]4C[C@](C)(O)CC[C@]4(C)[C@H]3CC[C@]12C [Ganaxolone]	25.3 µM
O=[N+]([O-])c1c(Cl)c(Cl)c(Cl)c(Cl)c1Cl [Pentachloronitrobenzene]	1.94 µM
Cc1ccc2ccccc2n1 [Quinaldine]	44 µM
CCNc1nc(NCC)nc(SC)n1 [Simetryn]	8.11 µM

biological target: CYP3A4 (Homo sapiens, UniProt P08684); test: biochemical; details: not given
Sequence (P08684 whole entry): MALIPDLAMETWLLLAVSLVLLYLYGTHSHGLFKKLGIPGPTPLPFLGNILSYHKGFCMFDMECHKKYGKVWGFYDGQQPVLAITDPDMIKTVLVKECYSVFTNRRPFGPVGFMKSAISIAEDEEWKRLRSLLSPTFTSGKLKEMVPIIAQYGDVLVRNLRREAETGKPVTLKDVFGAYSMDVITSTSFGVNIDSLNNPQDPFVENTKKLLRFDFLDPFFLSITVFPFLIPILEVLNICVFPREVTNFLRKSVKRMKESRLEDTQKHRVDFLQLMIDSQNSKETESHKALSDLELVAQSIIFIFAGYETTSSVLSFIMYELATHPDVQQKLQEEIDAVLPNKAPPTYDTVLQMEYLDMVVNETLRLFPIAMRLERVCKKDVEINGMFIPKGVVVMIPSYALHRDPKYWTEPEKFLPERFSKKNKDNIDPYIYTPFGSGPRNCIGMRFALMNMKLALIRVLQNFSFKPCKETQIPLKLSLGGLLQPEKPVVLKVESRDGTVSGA

Structure (SMILES)	AC50
Clc1nnc(Cl)c2ccccc12 [1,4-Dichlorophthalazine]	5.51 µM
COc1ccc(COC(C)=O)cc1 [4-Methoxybenzyl acetate]	40.8 µM
COC(=O)c1cccc(C(=O)OC)c1 [Dimethyl isophthalate]	52.6 µM
CCCCCCCCOS(=O)(=O)O [Sodium octyl sulfate]	62.6 µM

same assay, conditions: CYP3A4 AC50 (half-maximal activity concentration)

Structure (SMILES)	AC50
O=C(Cc1ccccc1)c1ccccc1 [1,2-Diphenylethanone]	7.68 µM
O=[N+]([O-])c1cccc(Cl)c1Cl [2,3-Dichloronitrobenzene]	29.1 µM
O=[N+]([O-])c1c(Cl)cc(Cl)cc1Cl [2,4,6-Trichloronitrobenzene]	6.35 µM
O=[N+]([O-])c1ccccc1CCl [2-Nitrobenzyl chloride]	36.1 µM
O=C(O)c1ccc(Cl)c(Cl)c1 [3,4-Dichlorobenzoic acid]	59.7 µM
O=[N+]([O-])c1cccc2cccnc12 [8-Nitroquinoline]	38 µM
COC(=O)c1ccc(C(=O)OC)cc1 [Dimethyl terephthalate]	40.1 µM
CCCCc1c(C)nc(NCC)[nH]c1=O [Ethirimol]	31.8 µM
CC(=O)[C@H]1CC[C@H]2[C@@H]3CC[C@H]4C[C@](C)(O)CC[C@]4(C)[C@H]3CC[C@]12C [Ganaxolone]	3.37 µM
O=[N+]([O-])c1c(Cl)c(Cl)c(Cl)c(Cl)c1Cl [Pentachloronitrobenzene]	4.7 µM
Cc1ccc2ccccc2n1 [Quinaldine]	47.7 µM
CCNc1nc(NCC)nc(SC)n1 [Simetryn]	46.2 µM

biological target: T3, human CYP2C9 (Homo sapiens, UniProt P11712); test: biochemical; details: not given
T3 sequence (P11712 whole entry): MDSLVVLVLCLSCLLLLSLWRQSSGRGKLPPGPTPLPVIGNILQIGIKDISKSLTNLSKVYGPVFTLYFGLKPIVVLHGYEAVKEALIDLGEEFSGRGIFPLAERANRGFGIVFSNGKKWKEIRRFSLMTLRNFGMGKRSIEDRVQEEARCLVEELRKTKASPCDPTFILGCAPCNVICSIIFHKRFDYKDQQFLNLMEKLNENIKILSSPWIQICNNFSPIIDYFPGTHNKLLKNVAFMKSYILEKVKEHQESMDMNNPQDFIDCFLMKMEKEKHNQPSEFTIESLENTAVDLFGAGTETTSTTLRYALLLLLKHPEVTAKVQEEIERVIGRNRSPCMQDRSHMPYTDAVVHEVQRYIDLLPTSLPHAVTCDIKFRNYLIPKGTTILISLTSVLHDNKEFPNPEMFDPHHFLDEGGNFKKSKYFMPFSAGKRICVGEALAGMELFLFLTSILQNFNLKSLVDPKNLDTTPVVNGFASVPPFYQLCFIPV

Structure (SMILES)	AC50
CCCCCCCCOS(=O)(=O)O [Sodium octyl sulfate]	30.6 µM

biological target: human CYP2D6 (Homo sapiens, UniProt P10635); test: not given; details: not given
Sequence (P10635 whole entry): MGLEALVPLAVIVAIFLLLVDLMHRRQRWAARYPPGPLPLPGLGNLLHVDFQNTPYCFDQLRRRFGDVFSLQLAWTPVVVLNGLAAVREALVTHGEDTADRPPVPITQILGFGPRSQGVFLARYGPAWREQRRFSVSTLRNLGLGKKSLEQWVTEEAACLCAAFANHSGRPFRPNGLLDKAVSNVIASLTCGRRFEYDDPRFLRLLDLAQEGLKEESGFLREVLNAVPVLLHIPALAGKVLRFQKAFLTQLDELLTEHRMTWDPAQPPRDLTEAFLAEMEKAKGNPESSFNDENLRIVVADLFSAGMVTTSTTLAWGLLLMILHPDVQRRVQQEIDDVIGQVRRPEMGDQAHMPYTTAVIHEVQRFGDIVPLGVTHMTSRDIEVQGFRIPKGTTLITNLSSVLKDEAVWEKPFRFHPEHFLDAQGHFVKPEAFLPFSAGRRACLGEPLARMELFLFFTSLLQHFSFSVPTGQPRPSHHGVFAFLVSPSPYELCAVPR

Structure (SMILES)	CYP2D6 AC50 (half-maximal activity concentration)
O=C(Cc1ccccc1)c1ccccc1 [1,2-Diphenylethanone]	Inconclusive inhibitor
Clc1nnc(Cl)c2ccccc12 [1,4-Dichlorophthalazine]	Inconclusive inhibitor
O=[N+]([O-])c1cccc(Cl)c1Cl [2,3-Dichloronitrobenzene]	Inactive
O=[N+]([O-])c1c(Cl)cc(Cl)cc1Cl [2,4,6-Trichloronitrobenzene]	Inactive
O=[N+]([O-])c1ccccc1CCl [2-Nitrobenzyl chloride]	Inconclusive inhibitor
O=C(O)c1ccc(Cl)c(Cl)c1 [3,4-Dichlorobenzoic acid]	Inactive
COc1ccc(COC(C)=O)cc1 [4-Methoxybenzyl acetate]	Inactive
O=[N+]([O-])c1cccc2cccnc12 [8-Nitroquinoline]	Inactive
COC(=O)c1cccc(C(=O)OC)c1 [Dimethyl isophthalate]	Inactive
COC(=O)c1ccc(C(=O)OC)cc1 [Dimethyl terephthalate]	Inactive
CCCCc1c(C)nc(NCC)[nH]c1=O [Ethirimol]	Inactive
CC(=O)[C@H]1CC[C@H]2[C@@H]3CC[C@H]4C[C@](C)(O)CC[C@]4(C)[C@H]3CC[C@]12C [Ganaxolone]	Inactive
O=[N+]([O-])c1c(Cl)c(Cl)c(Cl)c(Cl)c1Cl [Pentachloronitrobenzene]	Inactive
Cc1ccc2ccccc2n1 [Quinaldine]	Inactive
CCNc1nc(NCC)nc(SC)n1 [Simetryn]	Inactive
CCCCCCCCOS(=O)(=O)O [Sodium octyl sulfate]	Inactive

biological target: T1, human CYP2C19; test: biochemical; details: not given

Structure (SMILES)	AC50
COc1ccc(COC(C)=O)cc1 [4-Methoxybenzyl acetate]	53.7 µM
CCCCCCCCOS(=O)(=O)O [Sodium octyl sulfate]	52.3 µM

same assay, conditions: CYP2C19 AC50 (half-maximal activity concentration)

Structure (SMILES)	AC50
O=C(Cc1ccccc1)c1ccccc1 [1,2-Diphenylethanone]	12.8 µM

biological target: T3, human CYP2C9; test: not given; details: not given

Structure (SMILES)	CYP2C9 AC50 (half-maximal activity concentration)
O=C(Cc1ccccc1)c1ccccc1 [1,2-Diphenylethanone]	Inconclusive inhibitor
Clc1nnc(Cl)c2ccccc12 [1,4-Dichlorophthalazine]	Inactive
O=[N+]([O-])c1cccc(Cl)c1Cl [2,3-Dichloronitrobenzene]	Inconclusive activator
O=[N+]([O-])c1c(Cl)cc(Cl)cc1Cl [2,4,6-Trichloronitrobenzene]	Inactive
O=[N+]([O-])c1ccccc1CCl [2-Nitrobenzyl chloride]	Inactive
O=C(O)c1ccc(Cl)c(Cl)c1 [3,4-Dichlorobenzoic acid]	Inconclusive inhibitor
COc1ccc(COC(C)=O)cc1 [4-Methoxybenzyl acetate]	Inactive
O=[N+]([O-])c1cccc2cccnc12 [8-Nitroquinoline]	Inactive
COC(=O)c1cccc(C(=O)OC)c1 [Dimethyl isophthalate]	Inactive
COC(=O)c1ccc(C(=O)OC)cc1 [Dimethyl terephthalate]	Inactive
CCCCc1c(C)nc(NCC)[nH]c1=O [Ethirimol]	Inactive
CC(=O)[C@H]1CC[C@H]2[C@@H]3CC[C@H]4C[C@](C)(O)CC[C@]4(C)[C@H]3CC[C@]12C [Ganaxolone]	Inactive
O=[N+]([O-])c1c(Cl)c(Cl)c(Cl)c(Cl)c1Cl [Pentachloronitrobenzene]	Inconclusive inhibitor
Cc1ccc2ccccc2n1 [Quinaldine]	Inactive
CCNc1nc(NCC)nc(SC)n1 [Simetryn]	Inconclusive activator
